Measurements from ChEMBL document CHEMBL1201862, “PubChem BioAssay data set” (2004).
The source made the active and inactive calls.

Tests used:
[1] = target: T1, High affinity choline transporter 1 (Homo sapiens, UniProt Q9GZV3); assay: CHT inhibitors, dose response, cell-based, 5-point CRC, membrane potential dye (AID 504840); type: functional
T1 sequence (Q9GZV3 whole entry): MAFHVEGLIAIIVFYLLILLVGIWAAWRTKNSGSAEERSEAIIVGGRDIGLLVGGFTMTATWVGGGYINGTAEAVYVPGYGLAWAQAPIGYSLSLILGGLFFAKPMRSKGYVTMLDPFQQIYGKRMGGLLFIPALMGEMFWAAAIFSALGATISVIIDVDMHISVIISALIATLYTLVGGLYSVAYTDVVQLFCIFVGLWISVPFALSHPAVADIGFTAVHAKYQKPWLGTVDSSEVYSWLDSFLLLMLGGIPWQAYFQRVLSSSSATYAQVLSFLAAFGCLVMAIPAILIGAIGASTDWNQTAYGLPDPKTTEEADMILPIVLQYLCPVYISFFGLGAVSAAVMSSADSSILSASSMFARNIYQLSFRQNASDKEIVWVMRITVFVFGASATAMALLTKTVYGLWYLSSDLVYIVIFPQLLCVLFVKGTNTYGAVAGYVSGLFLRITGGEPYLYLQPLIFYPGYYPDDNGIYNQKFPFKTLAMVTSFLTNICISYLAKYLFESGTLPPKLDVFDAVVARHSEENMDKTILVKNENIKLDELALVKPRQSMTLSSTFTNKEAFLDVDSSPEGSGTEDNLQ

BJ = assay: cells; type: functional, cell-based; conditions: Homo sapiens
[2] = cytotoxicity toward DRD oncogenic fibroblasts, dose response, cell-based, non-viral oncogenic, luminescence (AID 1934); type: functional; conditions: Homo sapiens
[3] = Luminescence Cell-Based Dose Retest to Confirm Inhibitors of Cancer Stem Cells. [Related pubchem assays (depositor defined):AID2717, AID2721]; type: functional; conditions: Homo sapiens
[4] = target: T2, Replicative DNA helicase DnaB (Mycobacterium tuberculosis, UniProt P9WMR3); assay: DnaB intein splicing inhibitors, dose response, biochemical, cell-free fluorescence (AID 449749); type: functional
T2 sequence (P9WMR3 whole entry): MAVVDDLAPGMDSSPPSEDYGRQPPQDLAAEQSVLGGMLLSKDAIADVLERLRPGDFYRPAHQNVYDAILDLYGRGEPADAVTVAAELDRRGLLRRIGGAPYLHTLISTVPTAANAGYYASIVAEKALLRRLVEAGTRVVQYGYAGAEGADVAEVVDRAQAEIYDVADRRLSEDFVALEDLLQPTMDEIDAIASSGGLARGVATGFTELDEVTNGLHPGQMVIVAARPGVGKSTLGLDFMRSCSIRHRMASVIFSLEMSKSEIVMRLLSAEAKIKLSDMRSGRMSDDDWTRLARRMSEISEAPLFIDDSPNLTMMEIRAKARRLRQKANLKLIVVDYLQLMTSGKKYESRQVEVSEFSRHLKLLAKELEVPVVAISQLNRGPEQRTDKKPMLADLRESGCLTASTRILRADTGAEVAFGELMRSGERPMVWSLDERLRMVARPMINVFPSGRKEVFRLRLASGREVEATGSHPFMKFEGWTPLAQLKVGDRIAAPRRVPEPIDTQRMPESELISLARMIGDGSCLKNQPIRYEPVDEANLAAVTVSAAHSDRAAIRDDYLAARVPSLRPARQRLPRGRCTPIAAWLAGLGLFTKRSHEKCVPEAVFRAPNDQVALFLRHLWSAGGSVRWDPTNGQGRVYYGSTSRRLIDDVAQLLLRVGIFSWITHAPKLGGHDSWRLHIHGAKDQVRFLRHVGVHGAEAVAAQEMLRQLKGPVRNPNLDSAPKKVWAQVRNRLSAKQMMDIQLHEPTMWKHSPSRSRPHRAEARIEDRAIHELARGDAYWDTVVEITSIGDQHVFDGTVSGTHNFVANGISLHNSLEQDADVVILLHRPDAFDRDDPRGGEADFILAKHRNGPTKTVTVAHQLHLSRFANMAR

Protein RecA = target: T3, Protein RecA (Mycobacterium tuberculosis, UniProt P9WHJ3); assay: Fluorescence Cell-Free Homogeneous Dose Retest to Identify Inhibitors of RecA-Intein Splicing Activity. [Related pubchem assays (depositor defined):AID2097, AID2223, AID489010, AID492950]; type: functional
T3 sequence (P9WHJ3 whole entry): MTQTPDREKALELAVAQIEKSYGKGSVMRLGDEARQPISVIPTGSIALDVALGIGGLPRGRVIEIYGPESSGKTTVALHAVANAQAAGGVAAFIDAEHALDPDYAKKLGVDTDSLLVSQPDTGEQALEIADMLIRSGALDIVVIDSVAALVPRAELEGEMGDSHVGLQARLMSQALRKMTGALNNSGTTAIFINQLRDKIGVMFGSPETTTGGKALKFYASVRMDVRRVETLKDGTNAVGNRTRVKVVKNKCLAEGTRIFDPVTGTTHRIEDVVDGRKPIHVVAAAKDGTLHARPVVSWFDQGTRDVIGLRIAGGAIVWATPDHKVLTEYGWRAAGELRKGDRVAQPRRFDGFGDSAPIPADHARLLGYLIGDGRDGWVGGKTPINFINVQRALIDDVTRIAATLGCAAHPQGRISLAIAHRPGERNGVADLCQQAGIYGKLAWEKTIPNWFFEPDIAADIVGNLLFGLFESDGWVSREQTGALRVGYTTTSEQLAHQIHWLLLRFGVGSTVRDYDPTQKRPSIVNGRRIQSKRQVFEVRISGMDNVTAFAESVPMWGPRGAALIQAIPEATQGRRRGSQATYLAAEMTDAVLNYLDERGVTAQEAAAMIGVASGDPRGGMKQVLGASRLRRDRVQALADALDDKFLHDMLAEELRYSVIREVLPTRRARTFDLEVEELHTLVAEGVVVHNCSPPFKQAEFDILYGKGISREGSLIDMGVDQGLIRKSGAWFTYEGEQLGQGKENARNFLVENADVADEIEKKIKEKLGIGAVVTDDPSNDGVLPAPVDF

O=[N+]([O-])c1ccc(O)c(C2=NNC(c3ccccc3F)C2)c1 (stereo unspecified)
active: IC50 [1] 15.1 µM

Cc1oc2c(c1C(=O)N1CCC(C)CC1)C(=O)c1ccccc1C2=O
active: EC50 (BJ) 13.3 µM | EC50 [2] 16.5 µM | AC50 [3] 6.94 µM | AC50 [4] 73.9 µM | EC50 (Protein RecA) 1.09 µM
